Numbers after ± are expanded uncertainties.
Experiment: molar heat capacity at constant pressure
Settings: 101.33 kPa, Liquid, DSC

CCCCCCCC[n+]1ccn(C)c1.F[P-](F)(F)(F)(F)F [1-octyl-3-methylimidazolium hexafluorophosphate]
molar heat capacity at constant pressure (253.15 K): 549.23 ± 21 J/K/mol | molar heat capacity at constant pressure (258.15 K): 551.95 ± 21 J/K/mol | molar heat capacity at constant pressure (263.15 K): 554.33 ± 21 J/K/mol | molar heat capacity at constant pressure (268.15 K): 556.71 ± 21 J/K/mol | molar heat capacity at constant pressure (273.15 K): 559.77 ± 22 J/K/mol | molar heat capacity at constant pressure (278.15 K): 562.84 ± 22 J/K/mol | molar heat capacity at constant pressure (283.15 K): 566.92 ± 22 J/K/mol | molar heat capacity at constant pressure (288.15 K): 570.32 ± 22 J/K/mol | molar heat capacity at constant pressure (293.15 K): 573.73 ± 22 J/K/mol | molar heat capacity at constant pressure (298.15 K): 577.47 ± 22 J/K/mol | molar heat capacity at constant pressure (303.15 K): 580.53 ± 22 J/K/mol | molar heat capacity at constant pressure (308.15 K): 584.28 ± 23 J/K/mol | molar heat capacity at constant pressure (313.15 K): 587.34 ± 23 J/K/mol | molar heat capacity at constant pressure (318.15 K): 590.4 ± 23 J/K/mol | molar heat capacity at constant pressure (323.15 K): 593.46 ± 23 J/K/mol | molar heat capacity at constant pressure (328.15 K): 597.21 ± 23 J/K/mol | molar heat capacity at constant pressure (333.15 K): 600.27 ± 23 J/K/mol | molar heat capacity at constant pressure (338.15 K): 602.99 ± 23 J/K/mol | molar heat capacity at constant pressure (343.15 K): 606.05 ± 23 J/K/mol | molar heat capacity at constant pressure (348.15 K): 608.78 ± 23 J/K/mol | molar heat capacity at constant pressure (353.15 K): 611.84 ± 24 J/K/mol | molar heat capacity at constant pressure (358.15 K): 614.22 ± 24 J/K/mol | molar heat capacity at constant pressure (363.15 K): 617.28 ± 24 J/K/mol | molar heat capacity at constant pressure (368.15 K): 620.01 ± 24 J/K/mol | molar heat capacity at constant pressure (373.15 K): 622.39 ± 24 J/K/mol | molar heat capacity at constant pressure (378.15 K): 625.45 ± 24 J/K/mol | molar heat capacity at constant pressure (383.15 K): 628.17 ± 24 J/K/mol | molar heat capacity at constant pressure (388.15 K): 630.55 ± 25 J/K/mol | molar heat capacity at constant pressure (393.15 K): 633.28 ± 25 J/K/mol | molar heat capacity at constant pressure (398.15 K): 636.68 ± 25 J/K/mol | molar heat capacity at constant pressure (403.15 K): 639.74 ± 25 J/K/mol | molar heat capacity at constant pressure (408.15 K): 643.83 ± 25 J/K/mol | molar heat capacity at constant pressure (413.15 K): 646.89 ± 25 J/K/mol

Reference: the NIST ThermoML archive (doi:10.1016/j.jct.2018.04.018)
